{"source": "patent US20220154296A1", "about": "“USE OF ANTI-PD-1 ANTIBODY IN PREPARATION OF MEDICAMENT FOR TREATING SOLID TUMORS” (Shanghai Junshi Biosciences Co., Ltd., priority 2019, published 2022)", "key": {"[1]": {"tested_on": "advanced ESCC", "test": "Phase Ib/II clinical trial, anti-tumor activity study (RECIST v1.1), with biomarker subgroups", "type": "in vivo, human", "procedure": "From Mar. 9, 2017 to Aug.\nPD-L1 was detected in formalin-fixed paraffin-embedded (FFPE) tumor tissue samples by immunohistochemistry (IHC) methods and verified on the VENTANA Benchmark Ultra system at the clinical center laboratory (Q2 laboratory, Beijing). The immunohistochemistry detection of PD-L1 was performed using the Spring Bioscience (Roche) rabbit anti-human PD-L1 monoclonal antibody (clone SP142, Cat No: M4422). The expression of PD-L1 on tumor cells (TCs) and tumor infiltrating immune cells (ICs) was assessed by certified pathologists using stained tumor tissue. The PD-L1 positive status is defined as the presence of tumor cells with membrane staining intensity ≥1% or the presence of PD-LI staining intensity of tumor infiltrating immune cells covering ≥1% of related, continuous pen-cancerous stromal tumor area in the tumor occupied by tumor cells.\nDuring the clinical trial described in Example 1, tumor biopsy samples from 50 subjects were subjected to whole exome sequencing (WES). TMB was determined by analyzing somatic mutations within coding regions of the human genome."}, "[2]": {"tested_on": "CT-26 cells", "test": "Inhibitory effect on tumor growth in CT-26 cell-transplanted B-hPD-1 mice", "type": "in vivo", "procedure": "CT-26 cells were seeded subcutaneously on the right side of hPD-1 humanized female mice at a concentration of 2.5×10^5 cells/0.1 mL, and the mice were randomly grouped by tumor volume when tumors grew to about 93 mm^3 with 7 mice per group, for a total of 4 groups:\nG1: Anti-KLH hIgG4 (1 mg/kg) negative control group;\nG3: palbociclib (100 mg/kg);\nThe experiment was ended 11 days after the first administration. Tumor volume and body weight of mice were measured and recorded twice a week. At the end of the experiment, animals were euthanized and tumor growth inhibition (TGITv%) was calculated."}, "[3]": {"details": "59 patients, investigator-assessed RECIST v1.1"}, "[4]": {"details": "patients with 11q13 amplification (n=24)"}, "[5]": {"details": "patients with low or no PD-L1 expression (5% cutoff)"}, "[6]": {"details": "patients without 11q13 amplification (n=26)"}, "[7]": {"details": "subjects with more than 5% PD-L1 expression"}, "[8]": {"details": "without vs. with 11q13 amplification"}}, "data": [{"substance": "toripalimab: humanized IgG4 anti-PD-1 mAb comprising light and heavy chain amino acid sequences set forth in SEQ ID NOs: 9 and 10 (WO2014206107)", "values": [{"measurement": "ORR confirmed", "setting": "[1]; 59 patients", "result": 15.3, "unit": "%"}, {"measurement": "DCR", "setting": "[1]; 59 patients, RECIST v1.1", "result": 47.5, "unit": "%"}, {"measurement": "Optimal response rate", "setting": "[1]; 59 patients, RECIST v1.1", "result": 18.6, "unit": "%"}, {"measurement": "CR", "setting": "[1]; [3]", "result": 1, "unit": "case"}, {"measurement": "PR (including 2 cases of undiagnosed PR)", "setting": "[1]; [3]", "result": 10, "unit": "cases"}, {"measurement": "Subjects who had died", "setting": "[1]; 59 subjects, as of Dec. 31, 2018", "result": 67.8, "unit": "%"}, {"measurement": "Median PFS", "setting": "[1]; PD-L1 negative subjects", "result": 2.0, "unit": "months"}, {"measurement": "ORR", "setting": "[1]; PD-L1 negative subjects", "result": 18.4, "unit": "%"}, {"measurement": "OS", "setting": "[1]; PD-L1 negative subjects", "result": 6.9, "unit": "months"}, {"measurement": "OS", "setting": "[1]; PD-L1 positive patients", "result": 6.7, "unit": "months"}, {"measurement": "ORR", "setting": "[1]; PD-L1 positive patients (≥1% TC or IC, SP142 IHC)", "result": 15.8, "unit": "%"}, {"measurement": "Median PFS", "setting": "[1]; PD-L1 positive subjects", "result": 3.4, "unit": "months"}, {"measurement": "OR", "setting": "[1]; TMB equal to or greater than 12 mutations/Mb (n=11)", "result": 18.2, "unit": "%"}, {"measurement": "OR", "setting": "[1]; TMB less than 12 mutations/Mb (n=36)", "result": 19.4, "unit": "%"}, {"measurement": "Optimal response (%)", "setting": "[1]; Total, 59 people", "result": 18.6, "unit": "%"}, {"measurement": "Mean response time", "setting": "[1]; all patients", "result": 1.8, "unit": "months"}, {"measurement": "Median OS", "setting": "[1]; all patients", "result": 6.9, "unit": "months"}, {"measurement": "Median PFS", "setting": "[1]; all patients", "result": 2.1, "unit": "months"}, {"measurement": "Median duration of response", "setting": "[1]; all patients", "result": 11.2, "unit": "months"}, {"measurement": "Subjects with arbitrary size reduction in target lesions relative to baseline", "setting": "[1]; all patients", "result": 42.4, "unit": "%"}, {"measurement": "OS", "setting": "[1]; high TMB (≥12)", "result": 11.5, "unit": "months"}, {"measurement": "PFS", "setting": "[1]; high TMB (≥12)", "result": 4.0, "unit": "months"}, {"measurement": "OS", "setting": "[1]; low TMB (<12)", "result": 6.7, "unit": "months"}, {"measurement": "PFS", "setting": "[1]; low TMB (<12)", "result": 1.9, "unit": "months"}, {"measurement": "Median OS", "setting": "[1]; patients with 11q13 amplification", "result": 5.6, "unit": "months"}, {"measurement": "Objective response rate", "setting": "[1]; [4]", "result": 42}, {"measurement": "PFS", "setting": "[1]; [4]", "result": 1.0, "unit": "month"}, {"measurement": "DCR", "setting": "[1]; [5]", "result": 42.3, "unit": "%"}, {"measurement": "ORR", "setting": "[1]; [5]", "result": 15.4, "unit": "%"}, {"measurement": "Median OS", "setting": "[1]; patients without 11q13 amplification", "result": 11.5, "unit": "months"}, {"measurement": "Objective response rate", "setting": "[1]; [6]", "result": 30.8, "unit": "%"}, {"measurement": "PFS", "setting": "[1]; [6]", "result": 3.7, "unit": "months"}, {"measurement": "Optimal response (%)", "setting": "[1]; subgroup Age >60, 29 people", "result": 20.7, "unit": "%"}, {"measurement": "Optimal response (%)", "setting": "[1]; subgroup Age ≤60, 30 people", "result": 16.7, "unit": "%"}, {"measurement": "Optimal response (%)", "setting": "[1]; subgroup ECOG 0, 5 people", "result": 40.0, "unit": "%"}, {"measurement": "Optimal response (%)", "setting": "[1]; subgroup ECOG 1, 54 people", "result": 16.7, "unit": "%"}, {"measurement": "Optimal response (%)", "setting": "[1]; subgroup LDH >ULN, 14 people", "result": 28.6, "unit": "%"}, {"measurement": "Optimal response (%)", "setting": "[1]; subgroup LDH Normal, 45 people", "result": 15.6, "unit": "%"}, {"measurement": "Optimal response (%)", "setting": "[1]; subgroup Liver metastasis No, 43 people", "result": 18.6, "unit": "%"}, {"measurement": "Optimal response (%)", "setting": "[1]; subgroup Liver metastasis Yes, 16 people", "result": 18.8, "unit": "%"}, {"measurement": "Optimal response (%)", "setting": "[1]; subgroup Prior treatment 1, 13 people", "result": 15.4, "unit": "%"}, {"measurement": "Optimal response (%)", "setting": "[1]; subgroup Prior treatment 2, 19 people", "result": 15.8, "unit": "%"}, {"measurement": "Optimal response (%)", "setting": "[1]; subgroup Prior treatment 3+, 27 people", "result": 22.2, "unit": "%"}, {"measurement": "Optimal response (%)", "setting": "[1]; subgroup Sex Female, 7 people", "result": 14.3, "unit": "%"}, {"measurement": "Optimal response (%)", "setting": "[1]; subgroup Sex Male, 52 people", "result": 19.2, "unit": "%"}, {"measurement": "Optimal response (%)", "setting": "[1]; subgroup Tumor volume (baseline target lesion) >100 mm, 13 people", "result": 15.4, "unit": "%"}, {"measurement": "Optimal response (%)", "setting": "[1]; subgroup Tumor volume (baseline target lesion) ≤100 mm, 46 people", "result": 19.6, "unit": "%"}, {"measurement": "DCR", "setting": "[1]; [7]", "result": 100, "unit": "%"}, {"measurement": "ORR", "setting": "[1]; [7]", "result": 40, "unit": "%"}, {"measurement": "HR for OS", "setting": "[1]; [8]", "result": 0.60}, {"measurement": "HR for PFS", "setting": "[1]; [8]", "result": 0.47}, {"measurement": "TGI (%)", "setting": "[2]; 11 days after the first administration, toripalimab 1 mg/kg i.p., palbociclib 100 mg/kg orally", "result": 8.0, "unit": "%"}, {"measurement": "Tumor volume 11 days after the first administration", "setting": "[2]; mean ± standard error, toripalimab 1 mg/kg i.p. twice a week, palbociclib 100 mg/kg orally once a day, 7 mice per group", "result": "2519 ± 320", "unit": "mm^3"}]}]}
